Test system: Caco-2 human epithelial colorectal adenocarcinoma cells
Experiment: In vitro Caco-2 cell model, transport of (−)-epicatechin
Format: in vitro ADME
Conditions: for concentration of (−)-epicatechin in the basal compartment in comparison to sucrose: 250 μM (−)-epicatechin plus carbohydrate 100 mg/ml on the apical side, 2 h incubation; for concentration of (−)-epicatechin in the basal compartment when in combination with carbohydrate: (−)-epicatechin in combination with selected low glycemic index carbohydrates
Experimental: Caco-2 human epithelial colorectal adenocarcinoma cells were used to investigate the transport of (−)-epicatechin in vitro. Cells were grown in high glucose DMEM supplemented with 20% heat inactivated fetal bovine serum, non-essential amino acids and 2 mM L-glutamine, amphotericin B (1 μg/ml), penicillin (100 U/ml), and streptomycin (100 μg/ml) and maintained at 37° C. and 5% CO2. The medium was replaced every 2 days and the cells were reseeded every 7 days. Then, cells were seeded in 12-well transwell inserts at a density of 20,000 cells per cm^2 and the medium on both sides was replaced every 2 days. After 21 days, cells were already differentiated. On the experiment day, medium was removed and replaced by HBSS supplemented with 25 mM glucose, 10 mM HEPES and 1.8 mM CaCl2. […] Then, (−)-epicatechin (250 μM) alone or plus carbohydrates (5 to 100 mg/ml) were placed in the apical side of the cell monolayers and incubated for 2 h. All compounds were added to the exposure medium from stock solutions in DMSO. The concentration of DMSO at the apical side was kept at 0.05% in each experiment. (−)-Epicatechin was detected in the cell culture media using ultra-performance liquid chromatography using an Acquity UPLC HSS C18 2.1×100 mm, 1.8 μm column (Waters, Switzerland) equipped with HSS C18 VanGuard pre-column (Waters, Switzerland).

SMILES	concentration of (−)-epicatechin in the basal compartment in comparison to sucrose	concentration of (−)-epicatechin in the basal compartment when in combination with carbohydrate
O=C[C@H](O)[C@@H](O)[C@@H](O)[C@H](O)CO [galactose]	significant higher concentration of (−)-epicatechin in the basal compartment	significant increase in the concentration of (−)-epicatechin in the basal compartment
OC[C@@H](O)[C@@H](O)[C@H](O)[C@@H](O)CO [sorbitol, D-sorbitol]	significant higher concentration of (−)-epicatechin in the basal compartment	significant increase in the concentration of (−)-epicatechin in the basal compartment
OC[C@@H](O)[C@H](O)[C@@H](O)CO [xylitol]	significant higher concentration of (−)-epicatechin in the basal compartment	significant increase in the concentration of (−)-epicatechin in the basal compartment

From patent publication US10709159B2, “Increasing the bioavailability of flavan-3-ols with carbohydrates with a low glycemic index” (NESTEC S.A., priority 2012, dated 2020)
